Test results reported in patent US20050112573A1, “Method of detecting toxic substance” (priority 2001, published 2005).

System: yeast genes (level of expressed mRNA)
Assay: DNA chip analysis of expressed mRNA of yeast genes after 2 h culture with a toxic chemical substance
Format: cell-based, Saccharomyces cerevisiae S288C
Details: for The level of expressed mRNA in the presence of chemical substance/ (ratio to absence of chemical substance): stress protein genes, DNA chip; for The level of expressed mRNA in the presence of chemical substance/ in its absence, gene YPR184W: yeast gene YPR184W
Experimental: Yeast (Saccharomyces cerevtisiae S288C (α SUC2mal mel gap2 CUP1)) were cultured at 25° C. on YPD medium (yeast extract 1%, polypepton 2%, glucose 2%). One of toxic chemical substances was added to the cell at logarithmic growth phase, and the cell was further cultured for two hours. Cell was cultured without any chemical substance in the same condition, and was used as control. Concentrations of the chemical substances were defined to inhibit the growth of the yeast but not lead to death.
After the completion of cultivation, the culture was centrifuged to collect the cells. To the cells, sodium acetate buffer (50 mM sodium acetate, 10 mM EDTA, 1% SDS) was added, and the mixture was shaken at 65° C. for five minutes, followed by returning to room temperature, and obtaining the supernatant, which procedure was repeated two times. To the supernatant, ½ amount of a solution of phenol/chloroform was added, and the mixture was centrifuged to give a supernatant, which was added with an equal amount of chloroform, and the mixture was centrifuged to give a supernatant. To the supernatant, an equal amount of isopropanol containing 0.3 M sodium acetate was added, and the mixture was allowed to stand at room temperature for 30 minutes, after which the mixture was centrifuged to give a sediment of the whole RNAs. Seventy % ethanol was added to the sediment, and the mixture was again centrifuged to give a sediment, which was then dried and dissolved in water. mRNA was isolated from the whole RNAs as followings. In view of the fact that a poly A chain is attached to the 3′ terminus of mRNA, a polynucleotide having a poly T structure which was immobilized on the surface of latex beads was used to trap the mRNA, and then the mRNA was washed and eluted with spine column (Oligotex-dT30<Super>mRNA Purification Kit, Takara). Reverse transcription of the mRNA was conducted with a reverse transcriptase (Super Script II Reverse Transcriptase; catalogue No. 18064-014, GibcoBRL) using fluorescence-labeled nucleotides to give cDNAs that were introduced with Cy3-dUTP or Cy5-dUTP during the reverse transcription.
The labeled cDNAs were dissolved in TE buffer (10 mM Tris-HCl/1 mM EDTA, pH8.0), and the solution was dropped on the DNA chip containing the whole genes of yeast (DNA Chip Research Inc. Japan) so that the cDNAs were hybridized on the DNA chip at 65° C. for over 12 hours. The fluoresces intensity of the DNA chip was read with a scanner, and the ratio relative to the fluorescence intensity resulting from the absence of chemical substance was estimated as the following, which is shown in Tables 1 to 9: [formula]
In the Tables, “Intensity” indicated in the rightmost column is a value of the level of expressed mRNA of each gene in control cells as divided by the average level of the expressions of the whole genes.

COc1cc(CNC(=O)CCCCC=CC(C)C)ccc1O [(12), 8-methyl-N-vanillyl-6-nonenamide]
1.3: The level of expressed mRNA in the presence of chemical substance/ (ratio to absence of chemical substance) (yeast gene YOL161C) | The level of expressed mRNA in the presence of chemical substance/The level of expressed mRNA in the absence of chemical substance (yeast gene YOR157C)
1.2: The level of expressed mRNA in the presence of chemical substance/The level of expressed mRNA in the absence of chemical substance (yeast gene YNR069C) | The level of expressed mRNA in the presence of chemical substance/ (ratio to absence), gene YOL096C (yeast gene YOL096C, mitochondria-located protein genes, 2 h culture with chemical) | The level of expressed mRNA in the presence of chemical substance/ (in its absence), gene YOL096C (yeast gene YOL096C, ratio of DNA chip fluorescence intensity to that without chemical substance) | The level of expressed mRNA in the presence of chemical substance/The level of expressed mRNA in the absence of chemical substance (yeast gene YOR036W) | The level of expressed mRNA in the presence of chemical substance/ (in its absence), gene YOR103C (yeast gene YOR103C, ratio of DNA chip fluorescence intensity to that without chemical substance) | The level of expressed mRNA in the presence of chemical substance/The level of expressed mRNA in the absence of chemical substance (yeast gene YPR103W)
1.0: The level of expressed mRNA in the presence of chemical substance/The level of expressed mRNA in the absence of chemical substance (yeast gene YMR314W) | The level of expressed mRNA in the presence of chemical substance/The level of expressed mRNA in the absence of chemical substance (yeast gene YNL333W) | The level of expressed mRNA in the presence of chemical substance/ (in its absence), gene YNR072W (yeast gene YNR072W, ratio of DNA chip fluorescence intensity to that without chemical substance) | The level of expressed mRNA in the presence of chemical substance/ (in its absence), gene YOL108C (yeast gene YOL108C, ratio of DNA chip fluorescence intensity to that without chemical substance) | The level of expressed mRNA in the presence of chemical substance/The level of expressed mRNA in the absence of chemical substance (yeast gene YPR108W)
0.9: The level of expressed mRNA in the presence of chemical substance/The level of expressed mRNA in the absence of chemical substance (yeast gene YOR124C) | The level of expressed mRNA in the presence of chemical substance/ (in its absence), gene YOR251C (yeast gene YOR251C, ratio of DNA chip fluorescence intensity to that without chemical substance) | The level of expressed mRNA in the presence of chemical substance/The level of expressed mRNA in the absence of chemical substance (yeast gene YOR261C) | The level of expressed mRNA in the presence of chemical substance/The level of expressed mRNA in the absence of chemical substance (yeast gene YOR355W) | The level of expressed mRNA in the presence of chemical substance/ (in its absence), gene YOR363C (yeast gene YOR363C, ratio of DNA chip fluorescence intensity to that without chemical substance) | The level of expressed mRNA in the presence of chemical substance/ (ratio to absence), gene YPL040C (yeast gene YPL040C, mitochondria-located protein genes, 2 h culture with chemical) | The level of expressed mRNA in the presence of chemical substance/The level of expressed mRNA in the absence of chemical substance (yeast gene YPL109C) | The level of expressed mRNA in the presence of chemical substance/The level of expressed mRNA in the absence of chemical substance (yeast gene YPL149W) | The level of expressed mRNA in the presence of chemical substance/ (ratio to absence of chemical substance) (yeast gene YPL194W)
0.5: The level of expressed mRNA in the presence of chemical substance/ (ratio to absence of chemical substance) (yeast gene YOR010C)
0.6: The level of expressed mRNA in the presence of chemical substance/ (in its absence), gene YOL116W (yeast gene YOL116W, ratio of DNA chip fluorescence intensity to that without chemical substance) | The level of expressed mRNA in the presence of chemical substance/ (ratio to absence of chemical substance) (yeast gene YPR005C)
0.8: The level of expressed mRNA in the presence of chemical substance/ (in its absence), gene YNL025C (yeast gene YNL025C, ratio of DNA chip fluorescence intensity to that without chemical substance) | The level of expressed mRNA in the presence of chemical substance/ (ratio to absence of chemical substance) (yeast gene YNL064C) | The level of expressed mRNA in the presence of chemical substance/The level of expressed mRNA in the absence of chemical substance (yeast gene YNR010W) | The level of expressed mRNA in the presence of chemical substance/ (in its absence), gene YOR180C (yeast gene YOR180C, ratio of DNA chip fluorescence intensity to that without chemical substance) | The level of expressed mRNA in the presence of chemical substance/The level of expressed mRNA in the absence of chemical substance (yeast gene YOR181W) | The level of expressed mRNA in the presence of chemical substance/The level of expressed mRNA in the absence of chemical substance (yeast gene YOR259C) | The level of expressed mRNA in the presence of chemical substance/ (ratio to absence of chemical substance) (yeast gene YPL059W) | The level of expressed mRNA in the presence of chemical substance/ (ratio to absence), gene YPL134C (yeast gene YPL134C, mitochondria-located protein genes, 2 h culture with chemical) | The level of expressed mRNA in the presence of chemical substance/ (ratio to absence of chemical substance) (yeast gene YPL140C) | The level of expressed mRNA in the presence of chemical substance/ (in its absence), gene YPR165W (yeast gene YPR165W, ratio of DNA chip fluorescence intensity to that without chemical substance)
2.5: The level of expressed mRNA in the presence of chemical substance/The level of expressed mRNA in the absence of chemical substance (yeast gene YOR117W)
0.7: The level of expressed mRNA in the presence of chemical substance/The level of expressed mRNA in the absence of chemical substance (yeast gene YNL006W) | The level of expressed mRNA in the presence of chemical substance/The level of expressed mRNA in the absence of chemical substance (yeast gene YNL007C) | The level of expressed mRNA in the presence of chemical substance/ (ratio to absence), gene YNL073W (yeast gene YNL073W, mitochondria-located protein genes, 2 h culture with chemical) | The level of expressed mRNA in the presence of chemical substance/ (ratio to absence of chemical substance) (yeast gene YNR076W) | The level of expressed mRNA in the presence of chemical substance/ (ratio to absence of chemical substance) (yeast gene YOR008C) | The level of expressed mRNA in the presence of chemical substance/The level of expressed mRNA in the absence of chemical substance (yeast gene YOR132W) | The level of expressed mRNA in the presence of chemical substance/ (in its absence), gene YOR348C (yeast gene YOR348C, ratio of DNA chip fluorescence intensity to that without chemical substance) | The level of expressed mRNA in the presence of chemical substance/The level of expressed mRNA in the absence of chemical substance (yeast gene YPL089C) | The level of expressed mRNA in the presence of chemical substance/ (in its absence), gene YPL148C (yeast gene YPL148C, ratio of DNA chip fluorescence intensity to that without chemical substance)
1.4: The level of expressed mRNA in the presence of chemical substance/The level of expressed mRNA in the absence of chemical substance (yeast gene YOR288C) | The level of expressed mRNA in the presence of chemical substance/ in its absence, gene YPR184W (energy system protein genes, 2 h culture with the chemical, ratio to control without chemical) | The level of expressed mRNA in the presence of chemical substance/ in its absence, gene YPR184W (ratio of DNA chip fluorescence intensity to that without chemical substance)
1.1: The level of expressed mRNA in the presence of chemical substance/The level of expressed mRNA in the absence of chemical substance (yeast gene YNL093W) | The level of expressed mRNA in the presence of chemical substance/ (in its absence), gene YNL192W (yeast gene YNL192W, ratio of DNA chip fluorescence intensity to that without chemical substance) | The level of expressed mRNA in the presence of chemical substance/The level of expressed mRNA in the absence of chemical substance (yeast gene YOL013C) | The level of expressed mRNA in the presence of chemical substance/The level of expressed mRNA in the absence of chemical substance (yeast gene YOL164W) | The level of expressed mRNA in the presence of chemical substance/ (ratio to absence), gene YOR316C (yeast gene YOR316C, mitochondria-located protein genes, 2 h culture with chemical) | The level of expressed mRNA in the presence of chemical substance/The level of expressed mRNA in the absence of chemical substance (yeast gene YOR383C)
1.5: The level of expressed mRNA in the presence of chemical substance/The level of expressed mRNA in the absence of chemical substance (yeast gene YOR185C) | The level of expressed mRNA in the presence of chemical substance/The level of expressed mRNA in the absence of chemical substance (yeast gene YOR198C) | The level of expressed mRNA in the presence of chemical substance/The level of expressed mRNA in the absence of chemical substance (yeast gene YPL154C)
0.4: The level of expressed mRNA in the presence of chemical substance/ (ratio to absence of chemical substance) (yeast gene YOR009W)
